Data as given in patent publication US10323018B2 (Millennium Pharmaceuticals, Inc., priority 2015, dated 2019).
Read-outs that look alike come from different tables or passages of the source.

How the values were obtained:
hNAMPT protein = hNAMPT protein (Homo sapiens (Human), UniProt P43490); assay: NAMPT enzyme assay (TR-FRET/HTRF with BodiPY ligand); type: binding; conditions: for inhibition at 1 µM: read-out: Percent Inhibition; for IC50: NAMPT inhibition, IC50 range class
In short: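 His-tagged hNAMPT with anti-6His-Tb, incubated with compound and BodiPY ligand for 1 h at rt in the dark, in Tris-HCl pH 7.5 buffer with DTT, NaCl, MgCl2 and Tween 20. TR-FRET measured with 320 nm excitation as the 520/486 nm emission ratio. IC50 fitted relative to DMSO controls.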

PC3 cells = assay: PC3 growth inhibition (Cell-titer glo, 72 hours); type: cell-based; conditions: Homo sapiens, PC-3, 72 h, read-out: Percent Viability, PC3 cells, compound concentration 1.667 μM, 72 hours
In short: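 PC3 cells grown in RPMI1640 plated at 8×10^4 cells/ml, incubated overnight, then exposed to compound diluted in AIM serum-free medium for 72 h at 37 °C, 5% CO2. Luminescence by CellTiter-Glo relative to DMSO controls; % viability at single concentration, GI50 or LD50 from concentration-response curves.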

[1] = NAMPT inhibition at compound concentration 1 μM

Sequence of hNAMPT protein (P43490 whole entry): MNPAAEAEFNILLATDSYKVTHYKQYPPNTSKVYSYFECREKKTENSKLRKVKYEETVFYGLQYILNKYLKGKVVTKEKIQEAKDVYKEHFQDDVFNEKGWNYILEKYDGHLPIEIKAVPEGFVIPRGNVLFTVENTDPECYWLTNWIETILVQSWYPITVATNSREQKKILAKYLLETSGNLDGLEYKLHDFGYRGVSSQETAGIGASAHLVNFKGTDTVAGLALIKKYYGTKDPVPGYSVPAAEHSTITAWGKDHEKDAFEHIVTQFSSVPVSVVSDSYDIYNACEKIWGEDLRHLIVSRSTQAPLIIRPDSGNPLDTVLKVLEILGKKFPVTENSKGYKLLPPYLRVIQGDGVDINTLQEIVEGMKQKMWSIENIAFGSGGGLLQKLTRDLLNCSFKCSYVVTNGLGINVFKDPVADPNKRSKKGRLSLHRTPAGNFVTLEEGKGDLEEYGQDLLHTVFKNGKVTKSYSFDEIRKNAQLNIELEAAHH

SMILES	inhibition at 1 µM (hNAMPT protein; [1]) [%]	IC50 (hNAMPT protein) [nM]	viability at 1.667 µM (PC3 cells) [%]	inhibition at 1 µM (hNAMPT protein) [%]
CCOc1cc(-c2cccc(OC(F)(F)F)c2)nc2cc(C(=O)NCCCc3nnc[nH]3)ccc12 [Compound I-216, 4-ethoxy-N-[3-(4H-1,2,4-triazol-3-yl)propyl]-2-[3-(trifluoromethoxy)phenyl]quinoline-7-carboxamide]	92	50 to 100	1	–
COCCOCc1nc(-c2ccc(Cl)cc2)nc2cc(C(=O)NCCCc3nnc[nH]3)ccc12 [Compound I-64, N-(3-(4H-1,2,4-yriazol-3-yl)propyl)-2-(4-chlorophenyl)-4-((2-methoxyethoxy)methyl)quinazoline-7-carboxamide]	91	50 to 100	1	–
CCOc1cc(-c2ccc(F)cc2)nc2cc(C(=O)NCCCc3ccnnc3)ccc12 [Compound I-45, 4-ethoxy-2-(4-fluorophenyl)-N-[3-(pyridazin-4-yl)propyl]quinoline-7-carboxamide]	100	< 10	8	–
CCOc1cc(-c2ccc(C)nc2)nc2cc(C(=O)NCCCc3nnc[nH]3)ccc12 [Compound I-173, 4-ethoxy-2-(6-methylpyridin-3-yl)-N-[3-(4H-1,2,4-triazol-3-yl)propyl]quinoline-7-carboxamide]	98	10 to 50	2	–
CCCc1cc(-c2ccc(F)cc2)nc2cc(C(=O)NCCc3c[nH]nc3C)ccc12 [Compound I-152, 2-(4-fluorophenyl)-N-[2-(3-methyl-1H-pyrazol-4-yl)ethyl]-4-propylquinoline-7-carboxamide]	84	> 100	2	–
CCN(C)c1nc(-c2ccc(F)cc2)nc2cc(C(=O)NCCCc3ncc[nH]3)ccc12 [Compound I-39, 4-[ethyl(methyl)amino]-2-(4-fluorophenyl)-N-[3-(1H-imidazol-2-yl)propyl]quinazoline-7-carboxamide]	96	10 to 50	2	–
CCSc1nc(-c2ccc(F)cc2)nc2cc(C(=O)NCCCc3ncc[nH]3)ccc12 [Compound I-27, 4-(ethylsulfanyl)-2-(4-fluorophenyl)-N-[3-(1H-imidazol-2-yl)propyl]quinazoline-7-carboxamide]	–	< 10	1	98
CCOc1cc(-c2ccc(F)cc2)nc2cc(C(=O)N[C@H]3C[C@@H](c4ncc[nH]4)C3)ccc12 [Compound I-60, 4-Ethoxy-2-(4-fluorophenyl)-N-[cis-3-(1H-imidazol-2-yl)cyclobutyl]quinoline-7-carboxamide]	99	< 10	1	–
CCOc1cc(-c2ccnc(OC)c2)nc2cc(C(=O)NCCCc3[nH]nnc3C)ccc12 [Compound I-71, 4-ethoxy-2-(2-methoxypyridin-4-yl)-N-[3-(4-methyl-1H-1,2,3-triazol-5-yl)propyl]quinoline-7-carboxamide]	97	10 to 50	2	–
O=C(NCCCc1ncc[nH]1)c1ccc2c(CN3CCSCC3)nc(-c3ccc(Cl)cc3)nc2c1 [Compound I-26, 2-(4-chlorophenyl)-N-[3-(1H-imidazol-2-yl)propyl]-4-(thiomorpholin-4-ylmethyl)quinazoline-7-carboxamide]	89	> 100	1	–
O=C(NCCCc1ncc[nH]1)c1ccc2c(C3CC3)nc(-c3ccc(Cl)cc3)nc2c1 [Compound I-31, 2-(4-chlorophenyl)-4-cyclopropyl-N-[3-(1H-imidazol-2-yl)propyl]quinazoline-7-carboxamide]	97	10 to 50	1	–
CCOc1cc(-c2ccc(F)cc2)nc2cc(C(=O)NCCc3nnc[nH]3)ccc12 [Compound I-131, 4-ethoxy-2-(4-fluorophenyl)-N-[2-(4H-1,2,4-triazol-3-yl)ethyl]quinoline-7-carboxamide]	99	10 to 50	3	–
CCOc1cc(-c2ccc(C)nc2)nc2cc(C(=O)NCCc3nnc[nH]3)ccc12 [Compound I-168, 4-ethoxy-2-(6-methylpyridin-3-yl)-N-[2-(4H-1,2,4-triazol-3-yl)ethyl]quinoline-7-carboxamide]	95	10 to 50	2	–
CCOc1cc(-c2cc(F)ccc2OC)nc2cc(C(=O)NCCc3cnn[nH]3)ccc12 [Compound I-184, 4-ethoxy-2-(5-fluoro-2-methoxyphenyl)-N-[2-(1H-1,2,3-triazol-5-yl)ethyl]quinoline-7-carboxamide]	91	50 to 100	6	–
CCOc1cc(-c2cc(C)nc(OC)c2)nc2cc(C(=O)NCCCc3nnc[nH]3)ccc12 [Compound I-136, 4-ethoxy-2-(2-methoxy-6-methylpyridin-4-yl)-N-[3-(4H-1,2,4-triazol-3-yl)propyl]quinoline-7-carboxamide]	98	< 10	2	–
CCOc1cc(-c2ccc(F)cc2)nc2cc(C(=O)NCCCc3c[nH]nc3C)ccc12 [Compound I-201, 4-ethoxy-2-(4-fluorophenyl)-N-[3-(3-methyl-1H-pyrazol-4-yl)propyl]quinoline-7-carboxamide]	98	< 10	3	–
CC(C)Cc1nc(-c2ccc(Cl)cc2)nc2cc(C(=O)NCCCc3ncc[nH]3)ccc12 [Compound I-21, 2-(4-chlorophenyl)-N-[3-(1H-imidazol-2-yl)propyl]-4-isobutylquinazoline-7-carboxamide]	99	10 to 50	0	–
CCOc1cc(-c2ccnc(C)c2)nc2cc(C(=O)NCCc3cnn[nH]3)ccc12 [Compound I-181, 4-ethoxy-2-(2-methylpyridin-4-yl)-N-[2-(1H-1,2,3-triazol-5-yl)ethyl]quinoline-7-carboxamide]	86	> 100	9	–
CCOc1cc(-c2ccc(F)c(F)c2)nc2cc(C(=O)NCCCc3ncc[nH]3)ccc12 [Compound I-52, 2-(3,4-difluorophenyl)-4-ethoxy-N-[3-(1H-imidazol-2-yl)propyl]quinoline-7-carboxamide]	99	< 10	4	–
COCCOc1cc(-c2ccc(F)cc2)nc2cc(C(=O)NCCCc3cn[nH]n3)ccc12 [Compound I-109, 2-(4-fluorophenyl)-4-(2-methoxyethoxy)-N-[3-(2H-1,2,3-triazol-4-yl)propyl]quinoline-7-carboxamide]	100	10 to 50	2	–
CCCc1cc(-c2ccc(F)cc2)nc2cc(C(=O)NCCCc3ncc[nH]3)ccc12 [Compound I-163, 2-(4-fluorophenyl)-N-[3-(1H-imidazol-2-yl)propyl]-4-propylquinoline-7-carboxamide]	97	< 10	2	–
CCOc1cc(-c2ccc(C)nc2OC)nc2cc(C(=O)NCCc3[nH]nnc3C)ccc12 [Compound I-87, 4-ethoxy-2-(2-methoxy-6-methylpyridin-3-yl)-N-[2-(4-methyl-1H-1,2,3-triazol-5-yl)ethyl]quinoline-7-carboxamide]	94	10 to 50	2	–
